Experimental data published in US20250115576A1, “THERAPEUTIC COMPOUNDS AND METHODS OF USE THEREOF” (Genentech, Inc., priority 2018, published 2025).
Where a name gives a salt, the structure may show the parent alone.

Biological target: hNav1.7 (Homo sapiens (Human), UniProt Q15858)
Assay: Patch voltage clamp electrophysiology (EP), Syncropatch 384PE, CHO cells stably expressing Nav1.7
Type: cell-based
Conditions: holding potential −50 mV, 7.5 min compound incubation, read-out: EP_SP hNav1.7 EVO IC50
Text: Example 64c. Electrophysiological Assay (EP) (In Vitro Assay)
Patch voltage clamp electrophysiology allows for the direct measurement and quantification of block of voltage-gated sodium channels (NaV's), and allows the determination of the time- and voltage-dependence of block which has been interpreted as differential binding to the resting, open, and inactivated states of the sodium channel (Hille, B., Journal of General Physiology (1977), 69: 497-515).
The following voltage clamp electrophysiology studies are performed on representative compounds using cells heterologously expressing Nav1.7 or Nav1.5 channels. cDNAs for Nav1.7 (NM_002977) and Nav1.5 (AC137587) are stably expressed in Chinese Hamstr Ovary (CHO) cells and CHL (Chinese Hamster Lung) cells respectively. Sodium currents are measured in the whole-cell configuration using Syncropatch 384PE (Nanlon Technologies, Germany). 1NPC®-384 chips with custom medium resistance and single hole mode are used. Internal solution consists of (in mM): […], 10 CsCl, 20 EGTA, and 10 Hepes (pH adjusted to 7.2); and external solution contains (in mM): 60 NMDG, 80 NaCl, 4 KCl, 1 MgCl2, 2 CaCl2, 2 D-Glucose monohydrate, 10 Hepes (pH adjusted to 7.4 with NaOH).
After system flushing, testing compounds are dissolved in external solution containing 0.1% Pluronic F-127. The chip is moved into the measuring head and the instrument primes the chip with external and internal solutions. 10 μl cells are added to the chip from a cell hotel, and a negative pressure of −50 mBar is applied to form a seal. Following treatment with seal enhancer solution and wash-off with external solution, negative pressure of −250 mbar is applied for 1 second to achieve the whole-cell configuration, followed by three washing steps in external solution. 20 μl of compounds is added to 40 μl in each well (1:3 dilution of compounds), and after mixing, 20 μl is removed so the volume is retained at 40 ul. After approximately 13 minutes recordings, 20 μl/well of 2 uM TTX, or 333 uM Tetracaine (for […]) is added to achieve full block.
For voltage protocol, an holding potential of −50 mV is applied during the whole experiment. A depolarizing step is applied to −10 mV for 10 ms, followed by a hyperpolarization step to −150 mV for 20 ms to allow channel recovery from inactivation. A second depolarizing step is applied from −150 mV to −10 mV for 10 ms, where currents are measured to derive blocking effects of compounds. Inhibition is determined based on 7.5 min of compound incubation.

Sequence of hNav1.7 (Q15858 other isoform, or with tags, fused parts or gaps): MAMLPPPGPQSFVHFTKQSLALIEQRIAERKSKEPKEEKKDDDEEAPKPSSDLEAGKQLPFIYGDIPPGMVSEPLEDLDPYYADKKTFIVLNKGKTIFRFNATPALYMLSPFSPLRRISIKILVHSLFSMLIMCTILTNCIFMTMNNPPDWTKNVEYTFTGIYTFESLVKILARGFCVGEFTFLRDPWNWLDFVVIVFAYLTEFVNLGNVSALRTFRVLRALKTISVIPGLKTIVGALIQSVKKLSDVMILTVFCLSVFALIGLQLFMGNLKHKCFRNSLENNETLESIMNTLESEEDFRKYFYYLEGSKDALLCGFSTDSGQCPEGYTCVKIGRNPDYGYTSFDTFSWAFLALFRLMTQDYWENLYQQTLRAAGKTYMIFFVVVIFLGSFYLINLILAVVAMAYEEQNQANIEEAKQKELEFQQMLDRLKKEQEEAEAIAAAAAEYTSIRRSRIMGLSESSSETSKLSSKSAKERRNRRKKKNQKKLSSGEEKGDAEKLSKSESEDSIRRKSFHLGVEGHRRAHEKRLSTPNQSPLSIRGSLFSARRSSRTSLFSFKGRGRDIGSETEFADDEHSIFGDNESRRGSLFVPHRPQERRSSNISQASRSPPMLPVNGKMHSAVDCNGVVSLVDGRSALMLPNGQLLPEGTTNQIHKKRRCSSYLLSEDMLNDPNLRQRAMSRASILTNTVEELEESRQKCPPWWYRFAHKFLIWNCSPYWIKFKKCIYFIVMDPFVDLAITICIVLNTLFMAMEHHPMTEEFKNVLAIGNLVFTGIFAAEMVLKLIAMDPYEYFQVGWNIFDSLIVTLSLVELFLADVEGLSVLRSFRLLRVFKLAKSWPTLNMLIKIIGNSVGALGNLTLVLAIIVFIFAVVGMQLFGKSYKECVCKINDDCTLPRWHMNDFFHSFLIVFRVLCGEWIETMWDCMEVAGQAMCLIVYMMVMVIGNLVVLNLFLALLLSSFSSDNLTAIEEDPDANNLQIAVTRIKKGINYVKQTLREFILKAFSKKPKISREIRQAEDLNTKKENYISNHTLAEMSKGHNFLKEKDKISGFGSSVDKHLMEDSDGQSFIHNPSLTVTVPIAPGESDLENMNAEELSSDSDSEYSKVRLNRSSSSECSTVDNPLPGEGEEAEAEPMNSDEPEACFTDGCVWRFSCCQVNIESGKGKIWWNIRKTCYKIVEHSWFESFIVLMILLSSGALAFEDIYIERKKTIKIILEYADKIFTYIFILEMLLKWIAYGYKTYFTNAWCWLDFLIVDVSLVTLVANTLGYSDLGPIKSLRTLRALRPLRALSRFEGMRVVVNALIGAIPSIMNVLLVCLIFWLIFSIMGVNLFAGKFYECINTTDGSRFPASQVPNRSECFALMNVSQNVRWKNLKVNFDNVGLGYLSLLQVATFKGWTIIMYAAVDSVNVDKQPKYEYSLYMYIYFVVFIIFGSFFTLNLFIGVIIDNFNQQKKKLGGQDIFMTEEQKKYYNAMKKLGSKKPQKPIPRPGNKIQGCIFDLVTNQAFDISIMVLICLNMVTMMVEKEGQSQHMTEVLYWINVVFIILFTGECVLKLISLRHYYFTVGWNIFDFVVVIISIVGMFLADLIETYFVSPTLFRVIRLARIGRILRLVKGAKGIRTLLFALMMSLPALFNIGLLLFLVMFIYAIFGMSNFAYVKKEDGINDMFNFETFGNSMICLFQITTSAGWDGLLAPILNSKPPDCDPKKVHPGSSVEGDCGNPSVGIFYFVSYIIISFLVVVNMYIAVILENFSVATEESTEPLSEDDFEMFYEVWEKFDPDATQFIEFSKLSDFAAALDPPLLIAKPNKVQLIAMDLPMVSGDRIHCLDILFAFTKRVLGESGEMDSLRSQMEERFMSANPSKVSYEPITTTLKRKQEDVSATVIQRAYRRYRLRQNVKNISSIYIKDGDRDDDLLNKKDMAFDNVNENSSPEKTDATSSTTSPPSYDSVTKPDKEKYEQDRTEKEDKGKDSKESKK

| SMILES | IC50 [nM] |
| --- | --- |
| O=S(=O)(Nc1ccncn1)c1cnc(O[C@H]2CC[C@H](c3cccc(C(F)(F)F)n3)C[C@@H]2N2CCCC2)c(Cl)c1 [Example 40, 5-chloro-N-(pyrimidin-4-yl)-6-(((1S,2S,4S)-2-(pyrrolidin-1-yl)-4-(6-(trifluoromethyl)pyridin-2-yl)cyclohexyl)oxy)pyridine-3-sulfonamide] | 3.86 |
| Cc1nc(O[C@H]2CC[C@H](c3cccc(OC(F)(F)F)c3)C[C@@H]2N2CCCC2)ccc1S(=O)(=O)Nc1ccncn1 [Example 30, 2-Methyl-N-(pyrimidin-4-yl)-6-(((1S,2S,4S)-2-(pyrrolidin-1-yl)-4-(3-(trifluoromethoxy)phenyl)-cyclohexyl)oxy)pyridine-3-sulfonamide] | 1.07 |
| CCc1nc(O[C@H]2CC[C@H](c3cccc(C(F)(F)F)c3)C[C@@H]2N(C)C)ccc1S(=O)(=O)Nc1ccncn1 [Example 33, 6-(((1S,2S,4S)-2-(Dimethylamino)-4-(3-(trifluoromethyl)phenyl)cyclohexyl)oxy)-2-ethyl-N-(pyrimidin-4-yl)pyridine-3-sulfonamide] | 16.3 |
| CN(C)[C@H]1C[C@@H](c2ccc(Cl)c(C(F)(F)F)c2)CC[C@@H]1Oc1ccc(S(=O)(=O)Nc2ccncn2)cn1 [Example 12, 6-(((1S,2S,4S)-4-(4-chloro-3-(trifluoromethyl)phenyl)-2-(dimethylamino)cyclohexyl)oxy)-N-(pyrimidin-4-yl)pyridine-3-sulfonamide formate] | 0.66 |
| CCN(CC)[C@H]1C[C@@H](c2cccc(C(F)(F)F)c2)CC[C@@H]1Oc1ccc(S(=O)(=O)Nc2ccncn2)c(C)n1 [Example 47, 6-(((1S,2S,4S)-2-(Diethylamino)-4-(3-(trifluoromethyl)phenyl)cyclohexyl)oxy)-2-methyl-N-(pyrimidin-4-yl)pyridine-3-sulfonamide] | 1.73 |
| Cc1cc(S(=O)(=O)Nc2ccncn2)cnc1O[C@H]1CC[C@H](c2cccc(C(F)(F)F)c2)C[C@@H]1N(C)C [Example 15, 6-(((1S,2S,4S)-2-(Dimethylamino)-4-(3-(trifluoromethyl)phenyl)cyclohexyl)oxy)-5-methyl-N-(pyrimidin-4-yl)pyridine-3-sulfonamide] | 4.23 |
| Cc1nc(O[C@H]2CC[C@H](c3cccc(C(F)(F)F)c3)C[C@@H]2N(C)C)ccc1S(=O)(=O)Nc1ccncn1 [Example 23, 6-(((1S,2S,4S)-2-(Dimethylamino)-4-(3-(trifluoromethyl)phenyl)cyclohexyl)oxy)-2-methyl-N-(pyrimidin-4-yl)pyridine-3-sulfonamide formate] | 0.765 |
| Cc1nc(O[C@H]2CC[C@H](c3cccc(CC(F)(F)F)c3)C[C@@H]2N(C)C)ccc1S(=O)(=O)Nc1ccncn1 [Example 59, 6-(((1S,2S,4S)-2-(dimethyl-amino)-4-(3-(2,2,2-trifluoro-ethyl)phenyl)-cyclohexyl)-oxy)-2-methyl-N-(pyrimidin-4-yl)pyridine-3-sulfonamide] | 0.942 |
| Cc1nc(O[C@H]2CC[C@H](c3cccc(OC(F)(F)F)c3)C[C@@H]2N(C)C)ccc1S(=O)(=O)Nc1ccncn1 [Example 28, 6-(((1S,2S,4S)-2-(Dimethylamino)-4-(3-(trifluoromethoxy)phenyl)cyclohexyl)oxy)-2-methyl-N-(pyrimidin-4-yl)pyridine-3-sulfonamide] | 0.664 |
| Cc1nc(O[C@H]2CC[C@H](c3cccc(C(F)(F)F)c3)C[C@@H]2N(C)C2CCC2)ccc1S(=O)(=O)Nc1ccncn1 [Example 35, 6-(((1S,2S,4S)-2-(Cyclobutyl(methyl)amino)-4-(3-(trifluoromethyl)phenyl)cyclohexyl)oxy)-2-methyl-N-(pyrimidin-4-yl)pyridine-3-sulfonamide] | 0.597 |
| CN(C)[C@H]1C[C@@H](c2cccc(OC(F)(F)F)c2)CC[C@@H]1Oc1ccc(S(=O)(=O)Nc2ccncn2)cn1 [Example 25, 6-(((1S,2S,4S)-2-(dimethylamino)-4-(3-(trifluoromethoxy)phenyl)cyclohexyl)oxy)-N-(pyrimidin-4-yl)pyridine-3-sulfonamide formate] | 3.51 |
| CN(C)[C@H]1C[C@@H](c2cccc(C(F)(F)F)c2)CC[C@@H]1Oc1ccc(S(=O)(=O)Nc2ccncn2)cn1 [Example 1, 6-(((1S,2S,4S)-2-(Dimethylamino)-4-(3-(trifluoromethyl)phenyl)cyclohexyl)oxy)-N-(pyrimidin-4-yl)pyridine-3-sulfonamide] | 0.9 |
| CN(C)[C@H]1C[C@@H](c2cccc(C(F)(F)F)c2)CC[C@@H]1Oc1cc(Cl)c(S(=O)(=O)Nc2ccncn2)cn1 [Example 31, 4-Chloro-6-(((1S,2S,4S)-2-(dimethylamino)-4-(3-(trifluoromethyl)phenyl)cyclohexyl)oxy)-N-(pyrimidin-4-yl)pyridine-3-sulfonamide] | 10 |
| Cc1nc(O[C@H]2CC[C@H](c3ccc(Cl)c(C(F)(F)F)n3)C[C@@H]2N(C)C)ccc1S(=O)(=O)Nc1ccncn1 [Example 62, 6-(((1S,2S,4S)-4-(5-chloro-6-(trifluoromethyl)pyridin-2-yl)-2-(dimethylamino)-cyclohexyl)oxy)-2-methyl-N-(pyrimidin-4-yl)pyridine-3-sulfonamide] | 1.53 |
| Cc1nc(O[C@H]2CC[C@H](c3cc(F)cc(C(F)(F)F)c3)C[C@@H]2N(C)C)ccc1S(=O)(=O)Nc1ccncn1 [Example 42, 6-(((1S,2S,4S)-2-(Dimethylamino)-4-(3-fluoro-5-(trifluoromethyl)phenyl)cyclohexyl)oxy)-2-methyl-N-(pyrimidin-4-yl)pyridine-3-sulfonamide] | 0.646 |
| Cc1ccc([C@H]2CC[C@H](Oc3ccc(S(=O)(=O)Nc4ccncn4)c(C)n3)[C@@H](N(C)C)C2)cc1C(F)(F)F [Example 56, 6-(((1S,2S,4S)-2-(dimethyl-amino)-4-(4-methyl-3-(trifluoromethyl)phenyl)-cyclohexyl)oxy)-2-methyl-N-(pyrimidin-4-yl)pyridine-3-sulfonamide formate] | 0.13 |
| O=S(=O)(Nc1ccncn1)c1cnc(O[C@H]2CC[C@H](c3cccc(C(F)(F)F)c3)C[C@@H]2N2CCCCC2)c(Cl)c1 [Example 19, 5-chloro-6-(((1S,2S,4S)-2-(piperidin-1-yl)-4-(3-(trifluoromethyl)phenyl)cyclohexyl)oxy)-N-(pyrimidin-4-yl)pyridine-3-sulfonamide] | 0.281 |
| Cc1cc(O[C@H]2CC[C@H](c3cccc(C(F)(F)F)c3)C[C@@H]2N(C)C)ncc1S(=O)(=O)Nc1ccncn1 [Example 32, 6-(((1S,2S,4S)-2-(Dimethylamino)-4-(3-(trifluoromethyl)phenyl)cyclohexyl)oxy)-4-methyl-N-(pyrimidin-4-yl)pyridine-3-sulfonamide] | 37.1 |
| COc1cc(S(=O)(=O)Nc2ccncn2)cnc1O[C@H]1CC[C@H](c2cccc(C(F)(F)F)c2)C[C@@H]1N(C)C [Example 61, 6-(((1S,2S,4S)-2-(dimethyl-amino)-4-(3-(trifluoromethyl)-phenyl)cyclohexyl)oxy)-5-methoxy-N-(pyrimidin-4-yl)pyridine-3-sulfonamide formate] | 10.7 |
| O=S(=O)(Nc1ccncn1)c1ccc(O[C@H]2CC[C@H](c3cccc(OC(F)(F)F)c3)C[C@@H]2N2CCCC2)nc1 [Example 10, N-(pyrimidin-4-yl)-6-(((1S,2S,4S)-2-(pyrrolidin-1-yl)-4-(3-(trifluoromethoxy)phenyl)cyclohexyl)oxy)-pyridine-3-sulfonamide] | 5.62 |
| CN(C)[C@H]1C[C@@H](c2cccc(C(F)(F)F)c2)CC[C@@H]1Oc1ncc(S(=O)(=O)Nc2ccncn2)cc1Cl [Example 3, 5-Chloro-6-(((1S,2S,4S)-2-(dimethylamino)-4-(3-(trifluoromethyl)phenyl)cyclohexyl)oxy)-N-(pyrimidin-4-yl)pyridine-3-sulfonamide] | 2.21 |
| Cc1cc([C@H]2CC[C@H](Oc3ccc(S(=O)(=O)Nc4ccncn4)c(C)n3)[C@@H](N(C)C)C2)cc(C(F)(F)F)c1 [Example 58, 6-(((1S,2S,4S)-2-(dimethyl-amino)-4-(3-methyl-5-(trifluoromethyl)phenyl)-cyclohexyl)oxy)-2-methyl-N-(pyrimidin-4-yl)pyridine-3-sulfonamide] | 0.351 |
| Cc1nc(O[C@H]2CC[C@H](c3cc(Cl)cc(C(F)(F)F)c3)C[C@@H]2N(C)C)ccc1S(=O)(=O)Nc1ccncn1 [Example 49, 6-(((1S,2S,4S)-4-(3-chloro-5-(trifluoromethyl)phenyl)-2-(dimethylamino)cyclohexyl)oxy)-2-methyl-N-(pyrimidin-4-yl)pyridine-3-sulfonamide] | 0.188 |
